In patent US20240025907A1, “QUINAZOLINE PAN-KRas INHIBITORS” (Mirati Therapeutics, Inc., priority 2022, published 2024):

Legend:
[1] = tested on: KRas-mediated Phosphorylation of ERK in H727 cells; assay: Cisbio HTRF pERK assay, H727 cells; assay type: cell-based; conditions: Homo sapiens, NCI-H727, 3 h, 3 hrs compound, read-out: Inhibition (HTRF IC50 nM) of KRas-mediated Phosphorylation of ERK, H727
[2] = tested on: KRas-mediated Phosphorylation of ERK in AsPC-1 cells; assay: Cisbio HTRF pERK assay, AsPC-1 cells; assay type: cell-based; conditions: Homo sapiens, ASPC1, 3 h, 3 hrs compound, read-out: Inhibition (HTRF IC50 nM) of KRas-mediated Phosphorylation of ERK, AsPC-1
[3] = tested on: KRas-mediated Phosphorylation of ERK in H358 cells; assay: Cisbio HTRF pERK assay, H358 cells; assay type: cell-based; conditions: Homo sapiens, NCI-H358, 3 h, H358 cells, 3 hrs compound; read-out: Inhibition (HTRF IC50 nM) of KRas-mediated Phosphorylation of ERK, H358
[4] = biological target: T1, KRas^G12R (Homo sapiens, UniProt P01116, G12R); assay: KRas TR-FRET tracer displacement binding assay, G12R; conditions: 60-minute incubation
T1 construct: Biotinylated KRas (corresponding to amino acids 1-169, produced at Accelegan Inc.); biotin (biotinylated); purchased Accelegan Inc
Protocol: This Example illustrates that exemplary compounds of the present invention bind to KRas and are capable of displacing a labeled tracer ligand occupying the KRas binding site. KRas^WT, KRas^G12A, KRas^G12C, KRas^G12D, KRas^G12R, KRas^G12S, KRas^G12V, KRas^G13D, or KRas^Q61H was used in the assay.
The ability of a compound to bind to KRas was measured using a TR-FRET displacement assay. Biotinylated KRas (corresponding to amino acids 1-169, produced at Accelegan Inc.) was incubated with custom made Cy5 labelled tracer, terbium streptavidin (Cisbio Inc.) and compound (1% DMSO final) in buffer (50 mM HEPES, pH 7.5, 5 mM MgCl2, 0.005% Tween-20 and 1 mM DTT). After a 60-minute incubation at room temperature, the reaction was measured using a BMG LABTECH CLARIO star Plus via TR-FRET. […] The POC values were fit to a 4-parameter IC50 equation and the IC50 value reported in Table 1 (selected Examples 172-222).

[5] = biological target: T2, KRas^G12D (Homo sapiens, UniProt P01116, G12D); assay: KRas TR-FRET tracer displacement binding assay, G12D; conditions: 60-minute incubation
T2 construct: Biotinylated KRas (corresponding to amino acids 1-169, produced at Accelegan Inc.); biotin (biotinylated); purchased Accelegan Inc
Summary of the method: (§1)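 TR-FRET displacement: biotinylated KRas (aa 1-169) incubated with Cy5-labelled tracer, terbium streptavidin and compound (1% DMSO final) in 50 mM HEPES pH 7.5, 5 mM MgCl2, 0.005% Tween-20, 1 mM DTT. Read after 60-minute room-temperature incubation.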

[6] = tested on: KRas-mediated Phosphorylation of ERK in A549 cells; assay: Cisbio HTRF pERK assay, A549 cells; assay type: cell-based; conditions: Homo sapiens, A549, 3 h, A549 cells, 3 hrs compound; read-out: Inhibition (HTRF IC50 nM) of KRas-mediated Phosphorylation of ERK, A549
[7] = biological target: T3, KRas^G12V (Homo sapiens, UniProt P01116, G12V); assay: KRas TR-FRET tracer displacement binding assay, G12V; conditions: 60-minute incubation
T3 construct: Biotinylated KRas (corresponding to amino acids 1-169, produced at Accelegan Inc.); biotin (biotinylated); purchased Accelegan Inc
Summary of the method: as §1

[8] = tested on: KRas-mediated Phosphorylation of ERK in HCT116 cells; assay: Cisbio HTRF pERK assay, HCT116 cells; assay type: cell-based; conditions: Homo sapiens, HCT-116, 3 h, HCT116 cells, 3 hrs compound; read-out: Inhibition (HTRF IC50 nM) of KRas-mediated Phosphorylation of ERK, HCT116
[9] = tested on: KRas-mediated Phosphorylation of ERK in H460 cells; assay: Cisbio HTRF pERK assay, H460 cells; assay type: cell-based; conditions: Homo sapiens, NCI-H460, 3 h, H460 cells, 3 hrs compound; read-out: Inhibition (HTRF IC50 nM) of KRas-mediated Phosphorylation of ERK, H460
[10] = biological target: T4, KRas^G12S (Homo sapiens, UniProt P01116, G12S); assay: KRas TR-FRET tracer displacement binding assay, G12S; conditions: 60-minute incubation
T4 construct: Biotinylated KRas (corresponding to amino acids 1-169, produced at Accelegan Inc.); biotin (biotinylated); purchased Accelegan Inc
Summary of the method: as §1

[11] = tested on: KRas-mediated Phosphorylation of ERK in H2009 cells; assay: Cisbio HTRF pERK assay, H2009 cells; assay type: cell-based; conditions: Homo sapiens, NCI-H2009, H2009 cells; read-out: Inhibition (HTRF IC50 nM) of KRas-mediated Phosphorylation of ERK, H2009
[12] = tested on: KRas-mediated Phosphorylation of ERK in PSN1 cells; assay: Cisbio HTRF pERK assay, PSN1 cells; assay type: cell-based; conditions: Homo sapiens, PSN1, 3 h, 3 hour compound, read-out: Inhibition (HTRF IC50 nM) of KRas-mediated Phosphorylation of ERK, PSN1
Protocol: (§2) Inhibition of KRas Phosphorylation of ERK (HTRF) by Exemplary Compounds of Formula (I) • Cisbio HTRF Advanced pERK Assay Catalog #64AERPEH • Cell: MKN1, PSN1 • Procedure: • Day 1: Seed 6,000 cells/well −25 μl/well in 384-well white solid bottom plate; RPM1_10% FBS.

[13] = tested on: KRas-mediated Phosphorylation of ERK in MKN1 cells; assay: Cisbio HTRF pERK assay, MKN1 cells; assay type: cell-based; conditions: Homo sapiens, MKN-1, 3 hour compound, read-out: Inhibition (HTRF IC50 nM) of KRas-mediated Phosphorylation of ERK, MKN1
Protocol: as §2

[14] = biological target: T5, KRas^G12C (Homo sapiens, UniProt P01116, G12C); assay: KRas TR-FRET tracer displacement binding assay, G12C; conditions: 60-minute incubation
T5 construct: Biotinylated KRas (corresponding to amino acids 1-169, produced at Accelegan Inc.); biotin (biotinylated); purchased Accelegan Inc
Summary of the method: as §1

[15] = biological target: T6, KRas^WT (Homo sapiens, UniProt P01116); assay: KRas TR-FRET tracer displacement binding assay, WT; conditions: 60-minute incubation
T6 construct: Biotinylated KRas (corresponding to amino acids 1-169, produced at Accelegan Inc.); biotin (biotinylated); purchased Accelegan Inc
Summary of the method: as §1

T3 sequence (P01116 1-169 isoform P01116-2 G12V): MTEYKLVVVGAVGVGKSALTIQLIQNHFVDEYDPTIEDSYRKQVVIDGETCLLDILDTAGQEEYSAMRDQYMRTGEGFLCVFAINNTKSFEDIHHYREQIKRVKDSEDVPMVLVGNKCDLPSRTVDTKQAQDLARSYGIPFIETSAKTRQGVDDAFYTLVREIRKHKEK
T2 sequence (P01116 1-169 isoform P01116-2 G12D): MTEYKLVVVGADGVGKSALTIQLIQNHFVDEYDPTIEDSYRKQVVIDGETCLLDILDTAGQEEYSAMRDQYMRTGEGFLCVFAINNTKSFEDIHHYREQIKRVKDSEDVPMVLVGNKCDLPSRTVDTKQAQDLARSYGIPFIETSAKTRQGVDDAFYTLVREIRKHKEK
T4 sequence (P01116 1-169 isoform P01116-2 G12S): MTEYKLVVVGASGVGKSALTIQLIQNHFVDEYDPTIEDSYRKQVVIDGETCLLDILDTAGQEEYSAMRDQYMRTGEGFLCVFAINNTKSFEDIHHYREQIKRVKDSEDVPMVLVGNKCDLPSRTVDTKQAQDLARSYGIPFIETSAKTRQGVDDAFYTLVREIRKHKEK
T6 sequence (P01116 1-169 isoform P01116-2): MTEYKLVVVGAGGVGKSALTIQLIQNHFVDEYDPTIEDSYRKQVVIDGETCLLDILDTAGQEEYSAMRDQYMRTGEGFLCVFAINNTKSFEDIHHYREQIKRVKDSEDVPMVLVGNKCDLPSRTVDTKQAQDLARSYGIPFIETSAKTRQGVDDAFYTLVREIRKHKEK
T1 sequence (P01116 1-169 isoform P01116-2 G12R): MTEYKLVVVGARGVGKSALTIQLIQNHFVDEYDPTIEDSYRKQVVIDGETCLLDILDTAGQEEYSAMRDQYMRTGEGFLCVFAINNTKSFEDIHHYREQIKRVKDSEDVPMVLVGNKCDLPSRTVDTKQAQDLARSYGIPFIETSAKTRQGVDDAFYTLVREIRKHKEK
T5 sequence (P01116 1-169 isoform P01116-2 G12C): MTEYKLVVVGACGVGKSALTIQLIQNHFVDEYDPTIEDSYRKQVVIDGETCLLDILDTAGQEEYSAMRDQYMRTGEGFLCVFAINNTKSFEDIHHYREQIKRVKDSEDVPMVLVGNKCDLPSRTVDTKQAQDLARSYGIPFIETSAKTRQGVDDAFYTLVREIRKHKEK

Structure (SMILES) | IC50 [1] | IC50 [2] | IC50 [3] | IC50 [4] | IC50 [5] | IC50 [6] | IC50 [7] | IC50 [8] | IC50 [9] | IC50 [10] | IC50 [11] | IC50 [12] | IC50 [13] | IC50 [14] | IC50 [15]
CCc1c(F)ccc2cc(O)cc(-c3c(F)cc4c(NCc5c[nH]c6ncccc56)nc(OC[C@@]56CCCN5C[C@H](F)C6)nc4c3F)c12 [Example 174, 4-(4-(((1H-pyrrolo[2,3-b]pyridin-3-yl)methyl)amino)-6,8-difluoro-2-(((2R,7aS)-2-fluorotetrahydro-1H-pyrrolizin-7a(5H)-yl)methoxy)quinazolin-7-yl)-5-ethyl-6-fluoronaphthalen-2-ol] | 694 nM | 4020 nM | 324 nM | 9 nM | 285 nM | 734 nM | 9 nM | 2260 nM | 968 nM | – | – | – | – | – | –
CCc1c(F)ccc2cc(O)cc(-c3c(F)cc4c(N5CC(c6ccncc6)C5)nc(OC[C@@]56CCCN5C[C@H](F)C6)nc4c3F)c12 [Example 175, 4-(6,8-difluoro-2-(((2R,7aS)-2-fluorotetrahydro-1H-pyrrolizin-7a(5H)-yl)methoxy)-4-(3-(pyridin-4-yl)azetidin-1-yl)quinazolin-7-yl)-5-ethyl-6-fluoronaphthalen-2-ol] | 422 nM | 1280 nM | 185 nM | 16 nM | 313 nM | 490 nM | 12 nM | 1640 nM | 445 nM | – | – | – | – | – | –
CN(C)C(=O)c1cc2n(n1)CCCN(c1nc(OC[C@@]34CCCN3C[C@H](F)C4)nc3c(F)c(-c4ccc(F)c5sc(N)c(C#N)c45)c(F)cc13)C2 [Example 215, 5-(7-(2-amino-3-cyano-7-fluorobenzo[b]thiophen-4-yl)-6,8-difluoro-2-(((2R,7aS)-2-fluorotetrahydro-1H-pyrrolizin-7a(5H)-yl)methoxy)quinazolin-4-yl)-N,N-dimethyl-5,6,7,8-tetrahydro-4H-pyrazolo[1,5-a][1,4]diazepine-2-carboxamide] | 35 nM | 25 nM | 21 nM | – | < 2 nM | 393 nM | < 2 nM | 392 nM | 223 nM | < 2 nM | 34 nM | 3820 nM | 13 nM | 4 nM | < 2 nM
C[C@@]1(O)COCCN(c2nc(OC[C@@]34CCCN3C[C@H](F)C4)nc3c(F)c(-c4ccc(F)c5sc(N)c(C#N)c45)c(F)cc23)C1 [Example 216, 2-amino-4-(6,8-difluoro-2-(((2R,7aS)-2-fluorotetrahydro-1H-pyrrolizin-7a(5H)-yl)methoxy)-4-((S)-6-hydroxy-6-methyl-1,4-oxazepan-4-yl)quinazolin-7-yl)-7-fluorobenzo[b]thiophene-3-carbonitrile] | 131 nM | 175 nM | 26 nM | – | 4 nM | 325 nM | 4 nM | 346 nM | 118 nM | 5 nM | 18 nM | 2440 nM | 12 nM | 6 nM | 6 nM
N#Cc1c(N)sc2c(F)ccc(-c3c(Cl)cc4c(NCC5CS(=O)(=O)C5)nc(OC[C@@]56CCCN5C[C@H](F)C6)nc4c3F)c12 [Example 222, 2-amino-4-(6-chloro-4-(((1,1-dioxidothietan-3-yl)methyl)amino)-8-fluoro-2-(((2R,7aS)-2-fluorotetrahydro-1H-pyrrolizin-7a(5H)-yl)methoxy)quinazolin-7-yl)-7-fluorobenzo[b]thiophene-3-carbonitrile] | 1440 nM | 2560 nM | 207 nM | – | – | 1640 nM | – | 1110 nM | 911 nM | – | 273 nM | > 10000 nM | 84 nM | – | –

Further lines, results first:

IC50 [1] | IC50 [2] | IC50 [3] | IC50 [4] | IC50 [5] | IC50 [6] | IC50 [7] | IC50 [8] | IC50 [9] | IC50 [10] | IC50 [11] | IC50 [12] | IC50 [13] | IC50 [14] | IC50 [15] | Structure (SMILES)
1070 nM | 2900 nM | 370 nM | – | – | 3340 nM | – | 2250 nM | 1120 nM | – | 508 nM | > 10000 nM | 266 nM | – | – | N#Cc1c(N)sc2c(F)ccc(-c3c(Cl)cc4c(N5CC(O)C5)nc(OC[C@@]56CCCN5C[C@H](F)C6)nc4c3F)c12 [Example 219, 2-amino-4-(6-chloro-8-fluoro-2-(((2R,7aS)-2-fluorotetrahydro-1H-pyrrolizin-7a(5H)-yl)methoxy)-4-(3-hydroxyazetidin-1-yl)quinazolin-7-yl)-7-fluorobenzo[b]thiophene-3-carbonitrile]
123 nM | 202 nM | 63 nM | – | – | 261 nM | – | 591 nM | 134 nM | – | 49 nM | 5870 nM | 45 nM | – | – | COc1nc(OC[C@@]23CCCN2C[C@H](F)C3)nc2c(F)c(-c3ccc(F)c4sc(N)c(C#N)c34)c(Cl)cc12 [Example 220, 2-amino-4-(6-chloro-8-fluoro-2-(((2R,7aS)-2-fluorotetrahydro-1H-pyrrolizin-7a(5H)-yl)methoxy)-4-methoxyquinazolin-7-yl)-7-fluorobenzo[b]thiophene-3-carbonitrile]
1240 nM | 962 nM | 154 nM | – | – | 635 nM | – | 573 nM | 394 nM | – | 145 nM | 6040 nM | 86 nM | – | – | N#Cc1c(N)sc2c(F)ccc(-c3c(Cl)cc4c(N5CC(CO)C5)nc(OC[C@@]56CCCN5C[C@H](F)C6)nc4c3F)c12 [Example 221, 2-amino-4-(6-chloro-8-fluoro-2-(((2R,7aS)-2-fluorotetrahydro-1H-pyrrolizin-7a(5H)-yl)methoxy)-4-(3-(hydroxymethyl)azetidin-1-yl)quinazolin-7-yl)-7-fluorobenzo[b]thiophene-3-carbonitrile]
